# Where two headings read alike, the source gives them in different places.
# B1: recombinant human hemopexin: recombinant human hemopexin, a protein that binds free heme for transport to the liver (protein, UniProt P02790 24-462, looked up)
# Hemopexin: TPLPPTSAHGNVAEGETKPDPDVTERCSDGWSFDATTLDDNGTMLFFKGEFVWKSHKWDRELISERWKNFPSPVDAAFRQGHNSVFLIKGDKVWVYPPEKKEKGYPKLLQDEFPGIPSPLDAAVECHRGECQAEGVLFFQGDREWFWDLATGTMKERSWPAVGNCSSALRWLGRYYCFQGNQFLRFDPVRGEVPPRYPRDVRDYFMPCPGRGHGHRNGTGHGNSTHHGPEYMRCSPHLVLSALTSDNHGATYAFSGTHYWRLDTSRDGWHSWPIAHQWPQGPSAVDAAFSWEEKLYLVQGTQVYVFLTKGGYTLVSGYPKRLEKEVGTPHGIILDSVDAAFICPGSSRLHIMAGRRLWWLDLKSGAQATWTELPWPHEKVDGALCMEKSLGPNSCSANGPGLYLIHGPNLYCYSDVEKLNAAKALPQPQNVTSLLGCTH
# What was measured:
# [1] = system: C57BL/6J, B6.B10ScN-Tlr4lps-del/JthJ and C3H/HeJ mice; type: in vivo
# Method: The role of TLR-4 in response to an acute increase in free heme was investigated. Wild type C57BL/6J mice and TLR-4 mutant mice B6.B10ScN-Tlr4^lps-del and C3H/HeJ (Poltorak et al. Defective LPS signaling in C3H/HeJ and C57BL/10ScCr mice: mutations in Tlr4 gene. Science. 1998; 282(5396):2085-2088.; Qureshi et al. Endotoxin-tolerant mice have mutations in Toll-like receptor 4 (Tlr4). The J Expt. Med. 1999; 189(4):615-625) were injected intravenously with 210 μmoles/kg hemin, a normally lethal dose. This injection increased free heme concentrations by a magnitude of 50-fold in both wild type and TLR-4 mutant mice (FIG. 6a).
# TPH per se, therefore, the involvement of a receptor mediated mechanism was suspected. Several heme receptors have been characterized, including TLR433, which is uniquely expressed by multiple cells in the circulation and therefore accessible to PFPH. Studies were performed in wild-type C57BL/6J mice, and mutant strains, B6.B10ScN-Tlr4lps-del/JthJ and C3H/HeJ, harboring a deletion and a point mutation respectively, in the murine TLR4 gene. Significant elevation of PFPH in these mice required a large dose of heme (210 μmoles/kg) (FIG. 12a), and as expected this amount of heme interfered, transiently with SpO2 measurements characterized by an immediate and dramatic decline. […] This interpretation was supported by a return of SpO2 values to normal in C3H/HeJ but not in the wild-type C57BL/6J mice, indeed, SpO2 deteriorated over time in the latter reminiscent of the decline in SS mice (FIG. 12b). […] These unique pulmonary responses were consistent with survival (FIG. 12d) and lung histology (FIG. 13).
# SS mice [2] = test: TAK-242 pre-treatment before heme in SS mice; type: in vivo, mouse
# Method: (a, b) The concentration of total and protein-free plasma heme in SS mice following, injections of TAK-242 or intralipid in the absence of exogenous heme. (c, d) Percentage oxygen saturation and breath rate monitored in real-time in SS mice at different stages of the experiment as indicated. Data shown are for a total of nine SS mice (intralipid; n=4, TAK-242; n=5). (e) Survival of SS mice pre-treated with TAK-242 (3 or 5 mg/kg) for 1 h prior to intravenous administration of heme (n=7-13). Control mice were treated with intralipid (n=17). (f) Representative lung H&E staining of SS mice treated with intralipid or TAK-242 one hour prior to administration of heme (35 μmoles/kg). Cumulative lung injury score (n=3). *p<0.05, **p<0.01 and ***p<0.001.
# TAK-242 (resatorvid) is a small molecule that binds to Cys747 of the intracellular domain of TLR4 and inhibits downstream signaling. It inhibits the production of lipopolysaccharide (LPS)-induced inflammatory mediators, and it improves survival in LPS-induced sepsis. […] One hour prior to heme administration, a cohort of SS mice were intravenously administered 5 mg/kg of TAK-242, or intralipid. […] Heme had no impact on SpO2 in the majority of TAK-242 treated SS mice (5/6), however it caused an initially subtle yet sustained decrease that deteriorated over time in the intralipid treated mice (FIG. 14c). […] TAK-242 protected 83% of the SS mice from heme induced lethality, compared to 20% in the group given intralipid. These survival data were similar to those obtained in subsequent experiments focused on heme induced lethality (TAK-242; 5/7 (71%) protection, intralipid; 3/12 […] protection). The combined data is shown in FIG. 14e, and is supported by histological analysis (FIG. 14f).
# NF-κB = NF-κB activation in pulmonary microvascular endothelial cells; type: cell-based; conditions: PMVECs, hemin 5 or 10 μM
# From the text: Additionally, the role of NF-κB in the inflammatory response to free heme that occurs in ACS was investigated. Endothelial TLR4, and not neutrophil TLR4, mediates the early stage of the acute sequestration of neutrophils into the lungs in response to systemic LPS (Andonegui et al. Endothelium-derived Toll-like receptor-4 is the key molecule in LPS-induced neutrophil sequestration into lungs. J Clin Invest. 2003; 111(7):1011-1020; Andonegui et al. Mice that exclusively express TLR4 on endothelial cells can efficiently clear a lethal systemic Gram-negative bacterial infection. J Clin Invest. 2009; 119(7): 1921-1930). Thus, pulmonary microvascular endothelial cells (PMVECs) may play a role in the inflammatory response to free heme. […] These include nuclear translocation of p65 NF-κB in PMVECs as determined by immunofluorescence staining and western blot of nuclear extract (FIGS. 7b and 7c, respectively), luciferase reporter gene activity driven by a promoter harboring NF-κB cis elements in PMVECs (FIG. 7d), and TNF-α production (FIG. 7e).
# SS mice [3] = system: SS mice
# [4] = system: non-sickle cell disease mice; conditions: hemin 70 μmoles/kg, Vinchi et al.; cited from earlier work
# SS mice [5] = test: Acute prophylaxis with recombinant human hemopexin before heme in SS mice; type: in vivo, mouse; conditions: 1 mg intravenously immediately before heme 35 μmoles/kg
# Method: Mice were injected with rhHx (n=6), vehicle (n=5) or human IgG (n=3) immediately before administration of heme (35 μmoles/kg). *p<0.05, **p<0.01 and ***p<0.001.
# The hemopexin-treated mice were all protected while the control mice succumbed to heme (FIG. 11). Thus, acute prophylaxis using hemopexin may be an attractive therapeutic strategy to block the deleterious effects of PFPH during severe episodes of acute hemolysis in SCD.
molecule,measurement,setting,value
"C=CC1=C(C)c2cc3[nH]c(cc4[nH]c(cc5nc(cc1n2)C(C)=C5C=C)c(C)c4CCC(=O)[O-])c(CCC(=O)[O-])c3C.[Na+].[Na+] [Na-PPIX, sodium protoporphyrin IX]",survival,"[1]; injected at the LD100 of heme, C57BL/6J mice",no impact on survival
"CCOC(=O)C1=CCCC[C@H]1S(=O)(=O)Nc1ccc(F)cc1Cl [TAK-242, resatorvid]",development of heme induced ALI,"SS mice [2]; SCD mice, pre-treatment 1 h before heme",prevents
same,scavenging of heme (total and protein-free plasma heme),"SS mice [2]; SS mice, absence of exogenous heme",did not alter
same,protection from heme induced lethality,"SS mice [2]; TAK-242 5 mg/kg 1 h before heme, SS mice, first cohort",83%
same,SS mice in which heme had no impact on SpO2,SS mice [2]; TAK-242 5 mg/kg intravenously 1 h before heme,5/6
same,breath rate after heme,"SS mice [2]; TAK-242 5 mg/kg intravenously 1 h before heme, SS mice",remained essentially the same
same,protection from heme induced lethality,"SS mice [2]; subsequent experiments focused on lethality, SS mice",71%
Fe(III)PPIX [hemin],mortality,"[1]; hemin 210 μmoles/kg, both types of TLR-4 mutant mice",0%
same,mortality rate,"[1]; hemin 210 μmoles/kg, wild type C57BL/6J mice, after 90 minutes",100%
same,"NF-κB activation (p65 nuclear translocation, luciferase reporter, TNF-α production)",NF-κB,dose-dependently activates
same,serum ALT,"SS mice [3]; SS mice treated with heme, at the median time of death",normal
same,plasma hemopexin level after heme injection,"SS mice [3]; SS mice, heme 35 μmoles/kg, 5-30 min",virtually undetectable levels
same,survival,"SS mice [3]; heme 35 μmoles/kg, SS mice with the highest baseline hemopexin level",50%
same,survival,"SS mice [3]; heme 35 μmoles/kg, SS mice with the lowest baseline hemopexin (<0.1 mg/ml)",none
same,survival,"SS mice [3]; heme 70 μmoles/kg, AS and AA mice",no impact on survival
same,total plasma heme (TPH) and protein-free plasma heme (PFPH),"SS mice [3]; heme 17.5-70 μmoles/kg intravenously, SS mice",raised TPH and PFPH in a dose-dependent manner
same,lethality,"SS mice [3]; heme 17.5-70 μmoles/kg, SS mice",caused lethality in SS mice in a dose-dependent manner
same,oxygen saturation (SpO2),"SS mice [3]; hemin 70 μmoles/kg intravenous, SS mice",sharp drop
same,increase of plasma concentration of heme,"SS mice [3]; hemin 70 μmoles/kg intravenously, SS and control mice",20 fold
same,change in SpO2 or breath rate,"SS mice [3]; hemin 70 μmoles/kg, AS mice",no significant change
same,change in hematocrit,"SS mice [3]; hemin 70 μmoles/kg, SS or control mice",did not significantly change
same,lethality,"SS mice [3]; hemin 70 μmoles/kg, Townes and Berkeley SCD mice",caused sudden death
same,mortality,"SS mice [3]; hemin 70 μmoles/kg, adult SS mice aged 13-27 weeks",100%
same,survival,"SS mice [3]; hemin 70 μmoles/kg, young SS mice 5-7 weeks old",80%
same,increase of lung permeability,[4],2 fold
Iron mesoporphyrin [Fe(III)MPP-IX],survival,"[1]; mouse, in vivo",no impact on survival
B1,protection from heme induced lethality,SS mice [5],all protected
same,protection from heme induced lethality,SS mice [5]; listed as rhHx,protects
